In brackets after ≈: the same amount, converted by molar mass. Read-outs that look alike come from different tables or passages of the source.
How the values were obtained:
[1] = molecular target: T1, full-length beta-Catenin (Uniprot ID P35222) (Homo sapiens, UniProt P35222); test: Fluorescence polarization IC50 (beta-catenin / 5FAM-TCF4 10-53 competition); type: binding
T1 construct: 10 nM full-length beta-Catenin (Uniprot ID P35222)
T1 sequence (P35222 1-781): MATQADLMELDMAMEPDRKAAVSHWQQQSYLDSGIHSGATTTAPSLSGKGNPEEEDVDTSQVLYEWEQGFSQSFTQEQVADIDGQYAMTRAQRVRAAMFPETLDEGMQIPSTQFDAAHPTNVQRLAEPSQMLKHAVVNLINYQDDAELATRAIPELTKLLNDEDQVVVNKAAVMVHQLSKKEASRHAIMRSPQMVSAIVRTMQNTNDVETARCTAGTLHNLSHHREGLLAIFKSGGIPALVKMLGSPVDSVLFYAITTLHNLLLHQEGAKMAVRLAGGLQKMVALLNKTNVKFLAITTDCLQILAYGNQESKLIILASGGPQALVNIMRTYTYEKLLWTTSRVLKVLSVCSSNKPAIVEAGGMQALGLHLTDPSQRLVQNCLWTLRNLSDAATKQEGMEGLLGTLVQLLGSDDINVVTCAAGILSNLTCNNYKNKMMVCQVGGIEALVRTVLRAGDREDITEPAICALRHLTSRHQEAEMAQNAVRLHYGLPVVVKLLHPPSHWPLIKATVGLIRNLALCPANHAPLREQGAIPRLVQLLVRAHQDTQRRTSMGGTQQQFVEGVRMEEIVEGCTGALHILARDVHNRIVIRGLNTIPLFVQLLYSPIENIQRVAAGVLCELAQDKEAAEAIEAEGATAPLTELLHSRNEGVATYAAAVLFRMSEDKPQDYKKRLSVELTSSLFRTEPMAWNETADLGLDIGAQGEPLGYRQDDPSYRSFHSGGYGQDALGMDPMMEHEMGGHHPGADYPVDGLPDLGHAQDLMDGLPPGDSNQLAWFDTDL

CHI Log D procedure = type: physicochemical; details: for CHI Log D: pH 7.4; for chromatographic logD: pH 7.4, CHI Log D
Solubility in PBS = type: physicochemical
Outline: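 Steps: ultracentrifuge the peptide PBS solution, inject the supernatant on HPLC, inject a 50 μM peptide DMSO solution as reference, then calculate solubility as area ratio (PBS/DMSO) × 50 uM.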

[2] = molecular target: T2, beta-catenin/TCF4 engagement (Homo sapiens, UniProt P35222); test: Nano-BRET target engagement assay (B-cat-Halo & TCF4-Luc in HEK293 cells); type: cell-based; details: for IC50: absolute IC50, read-out: NanoBRET Abs IC50
T2 construct: expressed in transfected cells; host or cells: HEK293
T2 sequence (P35222 1-781): T1 sequence (P35222 1-781)

[3] = fluorescence polarization, read-out: beta-Catenin FP IC50

Row | SMILES | IC50 [1, 3] | IC50 ([1]; read-out: FP EC50) | CHI Log D (CHI Log D procedure) | Solubility (Solubility in PBS) | IC50 [2] | chromatographic logD (CHI Log D procedure) | Solubility (Solubility in PBS; Solubility (uM)) | inhibition at 10 µM ([2]; HEK293, @ 10 uM, read-out: NanoBRET % inh @ 10 uM)
1 | CC[C@H](C)[C@@H]1NC(=O)[C@H](CC(=O)O)NC(=O)[C@]2(CC=CCCCC3(CCCC=CCCCCCC[C@@](C)(C(=O)N[C@@H](Cc4ccsc4)C(=O)N[C@@H](Cc4csc5ccccc45)C(=O)N[C@@H](CCC(N)=O)C(N)=O)NC(=O)[C@H](CC(N)=O)NC(=O)[C@H](Cc4ccccc4)NC(=O)[C@H](C)NC(=O)[C@H](C)NC(=O)[C@H](CCC(=O)O)NC(=O)[C@H](CC(=O)O)NC3=O)NC1=O)CCCN2C(C)=O (stereo partly drawn) [I-521, Ac-PL3-Asp-Ile-B5-Asp-Glu-Ala-Ala-Phe-Asn-S8-3Thi-BztA-Gln-NH2] | 23 nM | 23 nM | 2.351 | 50 µM (≈ 93.8 µg/mL) | 15400 nM |  |  | 
2 | CC(=O)N1CCC[C@]12CC=CCCCC1(CCCC=CCCCCCC[C@@](C)(C(=O)N[C@@H](Cc3ccccc3)C(=O)N[C@@H](Cc3csc4ccccc34)C(=O)N[C@@H](Cc3c[nH]cn3)C(N)=O)NC(=O)[C@H](CC(N)=O)NC(=O)[C@H](Cc3ccccc3)NC(=O)[C@H](C)NC(=O)[C@H](C)NC(=O)[C@H](CCC(=O)O)NC(=O)[C@H](CC(=O)O)NC1=O)NC(=O)[C@H](CC(C)C)NC(=O)[C@H](CC(=O)O)NC2=O (stereo partly drawn) [I-543, Ac-PL3-Asp-Leu-B5-Asp-Glu-Ala-Ala-Phe-Asn-S8-Phe-BztA-His-NH2] | 32 nM |  |  |  | 17000 nM | 2.47 | 28 µM (≈ 52.6 µg/mL) | 
3 | CC(=O)N1CCC[C@]12CC=CCCCC1(CCCC=CCCCCCC[C@@](C)(C(=O)N[C@@H](Cc3ccccc3)C(=O)N[C@@H](Cc3csc4ccccc34)C(=O)N[C@@H](CCC(N)=O)C(N)=O)NC(=O)[C@H](CCC(N)=O)NC(=O)[C@H](Cc3ccccc3)NC(=O)[C@H](C)NC(=O)[C@H](C)NC(=O)[C@H](CCC(=O)O)NC(=O)[C@H](CC(=O)O)NC1=O)NC(=O)[C@H](CC(C)(C)C)NC(=O)[C@H](CC(=O)O)NC2=O (stereo partly drawn) [I-544, Ac-PL3-Asp-Npg-B5-Asp-Glu-Ala-Ala-Phe-Gln-S8-Phe-BztA-Gln-NH2] | 24 nM |  |  |  | 4600 nM | 2.48 | 48 µM (≈ 91.1 µg/mL) | 
4 | CC(=O)N1CCC[C@]12CC=CCCCC1(CCCC=CCCCCCC[C@@](C)(C(=O)N[C@@H](Cc3ccccc3)C(=O)N[C@@H](Cc3csc4ccccc34)C(=O)N[C@@H](CCC(N)=O)C(N)=O)NC(=O)[C@H](CCC(N)=O)NC(=O)[C@H](Cc3ccccc3)NC(=O)[C@H](C)NC(=O)[C@H](C)NC(=O)[C@H](CCC(=O)O)NC(=O)[C@H](CC(=O)O)NC1=O)NC(=O)[C@H](CCC(C)C)NC(=O)[C@H](CC(=O)O)NC2=O (stereo partly drawn) [I-545, Ac-PL3-Asp-hLeu-B5-Asp-Glu-Ala-Ala-Phe-Gln-S8-Phe-BztA-Gln-NH2] | 21 nM |  |  |  | 3500 nM | 2.57 | 46 µM (≈ 87.3 µg/mL) | 
5 | CC(=O)N1CCC[C@]12CC=CCCCC1(CCCC=CCCCCCC[C@@](C)(C(=O)N[C@@H](Cc3ccccc3)C(=O)N[C@@H](Cc3csc4ccccc34)C(=O)N[C@@H](CCC(N)=O)C(N)=O)NC(=O)[C@H](CC(N)=O)NC(=O)[C@H](Cc3ccccc3)NC(=O)[C@H](C)NC(=O)[C@H](C)NC(=O)[C@H](CC(=O)O)NC(=O)[C@H](CC(=O)O)NC1=O)NC(=O)[C@H](CC(C)(C)C)NC(=O)[C@H](CC(=O)O)NC2=O (stereo partly drawn) [I-546, Ac-PL3-Asp-Npg-B5-Asp-Asp-Ala-Ala-Phe-Asn-S8-Phe-BztA-Gln-NH2] | 16 nM |  |  | 50 µM (≈ 93.5 µg/mL) | 12100 nM | 2.4 |  | 
6 | CC(=O)N1CCC[C@]12CC=CCCCC1(CCCC=CCCCCCC[C@@](C)(C(=O)N[C@@H](Cc3ccccc3)C(=O)N[C@@H](Cc3csc4ccccc34)C(=O)N[C@@H](CCC(N)=O)C(N)=O)NC(=O)[C@H](CC(N)=O)NC(=O)[C@H](Cc3ccccc3)NC(=O)[C@H](C)NC(=O)[C@H](C)NC(=O)[C@H](CC(=O)O)NC(=O)[C@H](CC(=O)O)NC1=O)NC(=O)[C@H](CCC(C)C)NC(=O)[C@H](CC(=O)O)NC2=O (stereo partly drawn) [I-548, Ac-PL3-Asp-hLeu-B5-Asp-Asp-Ala-Ala-Phe-Asn-S8-Phe-BztA-Gln-NH2] | 17 nM | 17 nM | 2.528 | 50 µM (≈ 93.5 µg/mL) | 15600 nM |  |  | 
7 | CC[C@H](C)[C@@H]1NC(=O)[C@H](CC(=O)O)NC(=O)[C@]2(CC=CCCCC3(CCCC=CCCCCCC[C@@](C)(C(=O)N[C@@H](Cc4ccccc4OC)C(=O)N[C@@H](Cc4csc5ccccc45)C(=O)N[C@@H](CCC(N)=O)C(N)=O)NC(=O)[C@H](CC(N)=O)NC(=O)[C@H](Cc4ccccc4)NC(=O)[C@H](C)NC(=O)[C@H](C)NC(=O)[C@H](CC(=O)O)NC(=O)[C@H](CC(=O)O)NC3=O)NC1=O)CCCN2C(C)=O (stereo partly drawn) [I-550, Ac-PL3-Asp-Ile-B5-Asp-Asp-Ala-Ala-Phe-Asn-S8-2OMeF-BztA-Gln-NH2] | 30 nM | 30 nM | 2.343 | 50 µM (≈ 94.3 µg/mL) | 21400 nM |  |  | 
8 | CC[C@H](C)[C@@H]1NC(=O)[C@H](CC(=O)O)NC(=O)[C@]2(CC=CCCCC3(CCCC=CCCCCCC[C@@](C)(C(=O)N[C@@H](Cc4ccccc4)C(=O)N[C@@H](Cc4csc5ccccc45)C(=O)N[C@@H](CCC(N)=O)C(N)=O)NC(=O)[C@H](CC(N)=O)NC(=O)[C@H](Cc4ccccc4)NC(=O)[C@H](C)NC(=O)[C@H](C)NC(=O)[C@H](CCC(=O)O)NC(=O)[C@H](CC(=O)O)NC3=O)NC1=O)CCCN2C(C)=O (stereo partly drawn) [I-557, Ac-PL3-Asp-Ile-B5-Asp-Glu-Ala-Ala-Phe-Asn-S8-Phe-BztA-Gln-NH2] | 35 nM |  |  |  | 16900 nM | 2.39 | 47 µM (≈ 87.9 µg/mL) | 
9 | CC(=O)N1CCC[C@]12CC=CCCCC1(CCCC=CCCCCCC[C@@](C)(C(=O)N[C@@H](Cc3ccccc3)C(=O)N[C@@H](Cc3csc4ccccc34)C(=O)N[C@@H](CCC(N)=O)C(N)=O)NC(=O)[C@H](CC(N)=O)NC(=O)[C@H](Cc3ccccc3)NC(=O)[C@H](C)NC(=O)[C@H](C)NC(=O)[C@H](CC(=O)O)NC(=O)[C@H](CC(=O)O)NC1=O)NC(=O)[C@H](CC(C)C)NC(=O)[C@H](CC(=O)O)NC2=O (stereo partly drawn) [I-563, Ac-PL3-Asp-Leu-B5-Asp-Asp-Ala-Ala-Phe-Asn-S8-Phe-BztA-Gln-NH2] | 19 nM | 19 nM | 2.317 | 50 µM (≈ 92.8 µg/mL) | 15700 nM |  |  | 
10 | CC(=O)N1CCC[C@]12CC=CCCCC1(CCCC=CCCCCCC[C@@](C)(C(=O)N[C@@H](Cc3ccccc3)C(=O)N[C@@H](Cc3csc4ccccc34)C(=O)N[C@@H](Cc3c[nH]cn3)C(N)=O)NC(=O)[C@H](CC(N)=O)NC(=O)[C@H](Cc3ccccc3)NC(=O)[C@H](C)NC(=O)[C@H](C)NC(=O)[C@H](CC(=O)O)NC(=O)[C@H](CC(=O)O)NC1=O)NC(=O)[C@H](CC(C)C)NC(=O)[C@H](CC(=O)O)NC2=O (stereo partly drawn) [I-564, Ac-PL3-Asp-Leu-B5-Asp-Asp-Ala-Ala-Phe-Asn-S8-Phe-BztA-His-NH2] | 36 nM | 36 nM | 2.374 | 47 µM (≈ 87.6 µg/mL) | > 20000 nM |  |  | 
11 | CC(=O)N1CCC[C@]12CC=CCCCC1(CCCC=CCCCCCC[C@@](C)(C(=O)N[C@@H](Cc3ccccc3)C(=O)N[C@@H](Cc3csc4ccccc34)C(=O)N[C@@H](Cc3c[nH]cn3)C(N)=O)NC(=O)[C@H](CC(N)=O)NC(=O)[C@H](Cc3ccccc3)NC(=O)[C@H](C)NC(=O)[C@H](C)NC(=O)[C@H](CC(=O)O)NC(=O)[C@H](CC(=O)O)NC1=O)NC(=O)[C@H](CC(C)C)NC(=O)[C@H](CC(=O)O)NC2=O (stereo partly drawn) [I-565, Ac-PL3-Asp-Leu-B5-Asp-Asp-Ala-Ala-Phe-Asn-S8-Phe-BztA-His-NH2] | 13 nM | 13 nM | 2.435 | 26 µM (≈ 48.5 µg/mL) | 26000 nM |  |  | 
12 | CC(=O)N1CCC[C@]12CC=CCCCC1(CCCC=CCCCCCC[C@@](C)(C(=O)N[C@@H](Cc3ccccc3)C(=O)N[C@@H](Cc3csc4ccccc34)C(=O)N[C@@H](CCC(N)=O)C(N)=O)NC(=O)[C@H](CC(N)=O)NC(=O)[C@H](Cc3ccccc3)NC(=O)[C@H](C)NC(=O)[C@H](C)NC(=O)[C@H](CC(=O)O)NC(=O)[C@H](CC(=O)O)NC1=O)NC(=O)[C@H](C(C)C)NC(=O)[C@H](CC(=O)O)NC2=O (stereo partly drawn) [I-567, Ac-PL3-Asp-Val-B5-Asp-Asp-Ala-Ala-Phe-Asn-S8-Phe-BztA-Gln-NH2] | 37 nM | 37 nM | 2.243 | 50 µM (≈ 92.1 µg/mL) |  |  |  | 8.9%

Reference: US20240116985A1, “STAPLED PEPTIDES AND METHODS THEREOF” (priority 2020, published 2024)
